Active and inactive are the calls of the source. The rule behind the calls is not given here.
How the values were obtained:
[1] = target: von Hippel-Lindau disease tumor suppressor/Bromodomain-containing protein 4 (Homo sapiens) (UniProt O60885+P40337); assay: Protac activity at VHL/BRD4 in human MCF7 cells assessed as induction of BRD4 degradation at 10 uM measured after 24 hrs by Western blotting analysis; type: cell-based
[2] = target: E3 ubiquitin-protein ligase XIAP/Bromodomain-containing protein 4 (Homo sapiens) (UniProt P98170+O60885); assay: Protac activity at IAP/BRD4 in human SK-MEL-28 cells assessed as induction of BRD4 degradation at 0.1 to 10 uM measured after 24 hrs by Western blotting analysis; type: cell-based; conditions: dose 0.1-10 µM
Sequence of E3 ubiquitin-protein ligase XIAP/Bromodomain-containing protein 4 (Homo sapiens) (P98170 whole entry, looked up, other chains not shown): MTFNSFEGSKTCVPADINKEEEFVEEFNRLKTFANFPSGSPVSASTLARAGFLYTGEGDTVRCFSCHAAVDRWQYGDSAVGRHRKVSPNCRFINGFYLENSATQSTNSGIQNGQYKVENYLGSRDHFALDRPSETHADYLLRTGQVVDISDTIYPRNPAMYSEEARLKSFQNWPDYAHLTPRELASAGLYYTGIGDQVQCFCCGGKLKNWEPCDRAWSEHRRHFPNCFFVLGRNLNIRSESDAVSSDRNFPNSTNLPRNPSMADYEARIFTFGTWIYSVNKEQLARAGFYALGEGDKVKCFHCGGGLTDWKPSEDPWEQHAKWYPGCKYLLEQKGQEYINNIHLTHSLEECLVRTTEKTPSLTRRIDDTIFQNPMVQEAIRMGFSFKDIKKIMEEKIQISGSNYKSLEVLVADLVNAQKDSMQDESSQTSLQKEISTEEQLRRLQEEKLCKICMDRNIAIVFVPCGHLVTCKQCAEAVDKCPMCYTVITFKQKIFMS

Sequence of von Hippel-Lindau disease tumor suppressor/Bromodomain-containing protein 4 (Homo sapiens) (P40337 whole entry, looked up, other chains not shown): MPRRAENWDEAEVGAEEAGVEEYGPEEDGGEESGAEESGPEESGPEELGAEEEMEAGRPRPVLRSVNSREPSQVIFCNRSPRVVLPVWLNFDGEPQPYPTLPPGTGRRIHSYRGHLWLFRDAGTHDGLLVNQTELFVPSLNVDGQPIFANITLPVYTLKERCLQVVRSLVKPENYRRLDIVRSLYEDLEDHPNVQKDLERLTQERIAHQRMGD

CC1=C(C)C2C(c3ccc(Cl)cc3)=N[C@@H](CC(=O)NCCCNC(=O)CCCC(=O)N[C@H](C(=O)N3C[C@H](O)C[C@H]3C(=O)NCc3ccc(-c4scnc4C)cc3)C(C)(C)C)c3nnc(C)n3C2S1 (some centres undefined)
Activity [1]: Active

CN[C@@H](C)C(=O)N[C@H](C(=O)N1CCC[C@H]1c1nc(C(=O)c2cccc(OCC(=O)NCCCNC(=O)C[C@@H]3N=C(c4ccc(Cl)cc4)c4c(sc(C)c4C)-n4c(C)nnc43)c2)cs1)C1CCCCC1
Activity [2]: Active

CC1=C(C)C2C(c3ccc(Cl)cc3)=N[C@@H](CC(=O)NCCOCCOCCNC(=O)CCCC(=O)N[C@H](C(=O)N3C[C@H](O)C[C@H]3C(=O)NCc3ccc(-c4scnc4C)cc3)C(C)(C)C)c3nnc(C)n3C2S1 (some centres undefined)
Activity [1]: inactive

CN[C@@H](C)C(=O)N[C@H](C(=O)N1CCC[C@H]1c1nc(C(=O)c2cccc(OCC(=O)NCCOCCOCCOCCNC(=O)C[C@@H]3N=C(c4ccc(Cl)cc4)c4c(sc(C)c4C)-n4c(C)nnc43)c2)cs1)C1CCCCC1
Activity [2]: Active
